Source: patent US10329299B2, “Heterocyclic compounds and uses thereof” (Infinity Pharmaceuticals, Inc., priority 2013, dated 2019)

Columns and labels:
PI3K-γ = PI3K-γ (Mus musculus (Mouse), UniProt Q9JHG7); experiment: PI3K-γ selective cellular assay: phospho-AKT in C5a stimulated RAW264.7 macrophages; format: cell-based; settings: ratio of RAJI p110 δ assay IC50 to Raw264.7 p110 γ assay IC50
[1] = target: γ isoform of human Class I PI3 kinases (Homo sapiens (Human), UniProt P48736); experiment: PI3-Kinase Promega ADP-Glo Max assay, γ isoform; format: biochemical; settings: for PI3K δ/PI3K γ IC50 (selectivity): ratio of PI3K δ IC50 to PI3K γ IC50
PI3K/Akt/mTOR signaling = experiment: Kinase signaling in blood (phosflow); format: cell-based; settings: unfractionated splenocytes or peripheral blood mononuclear cells stimulated with anti-CD3
Experimental: PI3K/Akt/mTOR signaling is measured in blood cells using the phosflow method (Methods Enzymol. (2007) 434:131-54). This method is by nature a single cell assay so that cellular heterogeneity can be detected rather than population averages. This allows concurrent distinction of signaling states in different populations defined by other markers. Phosflow is also highly quantitative. To test the effects of one or more compounds provided herein, unfractionated splenocytes, or peripheral blood mononuclear cells are stimulated with anti-CD3 to initiate T-cell receptor signaling. The cells are then fixed and stained for surface markers and intracellular phosphoproteins. […]
Similarly, aliquots of whole blood are incubated for 15 minutes with vehicle (e.g., 0.1% DMSO) or kinase inhibitors at various concentrations, before addition of stimuli to crosslink the T cell receptor (TCR) (anti-CD3 with secondary antibody) or the B cell receptor (BCR) using anti-kappa light chain antibody (Fab′2 fragments). […] The level of phosphorylation of kinase substrates such as Akt and S6 are then measured by incubating the fixed cells with labeled antibodies specific to the phosphorylated isoforms of these proteins. The population of cells are then analyzed by flow cytometry.

[2] = target: β isoform of human Class I PI3 kinases (Homo sapiens (Human), UniProt P42338); experiment: PI3-Kinase Promega ADP-Glo Max assay, β isoform; format: biochemical; settings: read-out: PI3K β IC50
[3] = target: α isoform of human Class I PI3 kinases (Homo sapiens (Human), UniProt P42336); experiment: PI3-Kinase Promega ADP-Glo Max assay, α isoform; format: biochemical; settings: read-out: PI3K α IC50
[4] = target: δ isoform of human Class I PI3 kinases (Homo sapiens (Human), UniProt O00329); experiment: PI3-Kinase Promega ADP-Glo Max assay, δ isoform; format: biochemical; settings: read-out: PI3K δ IC50

Sequence of γ isoform of human Class I PI3 kinases (P48736 whole entry, canonical isoform): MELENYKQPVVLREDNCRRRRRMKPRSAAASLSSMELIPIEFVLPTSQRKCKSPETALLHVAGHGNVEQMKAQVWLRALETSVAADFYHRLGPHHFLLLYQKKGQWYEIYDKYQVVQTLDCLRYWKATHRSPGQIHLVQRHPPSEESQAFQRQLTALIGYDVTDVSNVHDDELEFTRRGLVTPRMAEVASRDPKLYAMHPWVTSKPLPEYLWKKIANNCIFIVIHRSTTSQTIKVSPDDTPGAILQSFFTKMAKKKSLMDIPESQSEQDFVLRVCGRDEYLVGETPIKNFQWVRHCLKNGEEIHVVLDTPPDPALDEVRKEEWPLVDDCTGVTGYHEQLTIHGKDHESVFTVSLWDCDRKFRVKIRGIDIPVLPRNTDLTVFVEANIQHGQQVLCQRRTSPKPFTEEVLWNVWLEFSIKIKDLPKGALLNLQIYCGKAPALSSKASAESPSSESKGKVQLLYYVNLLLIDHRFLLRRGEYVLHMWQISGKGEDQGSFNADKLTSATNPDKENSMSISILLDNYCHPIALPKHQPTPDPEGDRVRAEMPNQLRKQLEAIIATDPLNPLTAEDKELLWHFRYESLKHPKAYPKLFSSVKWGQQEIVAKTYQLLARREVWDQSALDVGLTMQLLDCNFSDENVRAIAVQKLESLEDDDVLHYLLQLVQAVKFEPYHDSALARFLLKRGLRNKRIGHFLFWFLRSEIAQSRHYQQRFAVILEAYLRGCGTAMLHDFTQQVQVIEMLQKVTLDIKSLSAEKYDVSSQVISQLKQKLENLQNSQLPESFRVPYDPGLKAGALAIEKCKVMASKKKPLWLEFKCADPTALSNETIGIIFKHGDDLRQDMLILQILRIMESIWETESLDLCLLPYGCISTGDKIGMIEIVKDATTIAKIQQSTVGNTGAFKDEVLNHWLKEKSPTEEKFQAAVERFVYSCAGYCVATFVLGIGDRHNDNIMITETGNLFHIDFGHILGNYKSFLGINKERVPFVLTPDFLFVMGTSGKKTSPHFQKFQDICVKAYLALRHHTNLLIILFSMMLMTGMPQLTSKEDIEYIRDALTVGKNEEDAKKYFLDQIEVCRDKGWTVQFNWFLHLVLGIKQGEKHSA
Sequence of PI3K-γ (Q9JHG7 whole entry, canonical isoform): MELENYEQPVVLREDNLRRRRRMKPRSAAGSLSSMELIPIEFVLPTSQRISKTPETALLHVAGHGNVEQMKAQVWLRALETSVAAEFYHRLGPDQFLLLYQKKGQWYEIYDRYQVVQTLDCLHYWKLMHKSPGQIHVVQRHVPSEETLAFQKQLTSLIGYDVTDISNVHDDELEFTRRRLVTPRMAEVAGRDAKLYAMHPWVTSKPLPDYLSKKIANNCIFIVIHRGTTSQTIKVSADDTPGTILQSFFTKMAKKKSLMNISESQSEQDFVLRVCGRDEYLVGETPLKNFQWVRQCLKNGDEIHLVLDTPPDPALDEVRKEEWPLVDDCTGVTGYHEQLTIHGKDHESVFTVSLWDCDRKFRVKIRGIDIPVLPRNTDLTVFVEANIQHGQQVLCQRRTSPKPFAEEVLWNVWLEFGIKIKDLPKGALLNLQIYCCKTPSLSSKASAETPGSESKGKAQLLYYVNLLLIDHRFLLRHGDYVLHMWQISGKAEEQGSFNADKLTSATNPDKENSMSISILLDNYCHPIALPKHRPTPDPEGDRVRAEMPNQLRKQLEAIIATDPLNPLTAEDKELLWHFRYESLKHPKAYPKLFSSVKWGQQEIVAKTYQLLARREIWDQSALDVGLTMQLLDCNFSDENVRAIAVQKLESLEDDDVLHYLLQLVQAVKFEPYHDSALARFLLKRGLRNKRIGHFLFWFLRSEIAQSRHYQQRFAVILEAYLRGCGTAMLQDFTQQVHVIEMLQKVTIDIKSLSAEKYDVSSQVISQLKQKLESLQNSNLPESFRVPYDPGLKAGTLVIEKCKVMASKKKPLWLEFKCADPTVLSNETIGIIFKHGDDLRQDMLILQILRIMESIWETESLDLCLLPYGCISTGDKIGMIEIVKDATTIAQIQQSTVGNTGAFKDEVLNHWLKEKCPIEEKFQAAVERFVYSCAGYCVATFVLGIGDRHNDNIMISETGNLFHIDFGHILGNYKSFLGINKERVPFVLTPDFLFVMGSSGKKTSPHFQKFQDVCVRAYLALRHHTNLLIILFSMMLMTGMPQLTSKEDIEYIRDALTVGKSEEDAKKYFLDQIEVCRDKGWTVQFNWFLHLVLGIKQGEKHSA
Sequence of α isoform of human Class I PI3 kinases (P42336 whole entry, canonical isoform): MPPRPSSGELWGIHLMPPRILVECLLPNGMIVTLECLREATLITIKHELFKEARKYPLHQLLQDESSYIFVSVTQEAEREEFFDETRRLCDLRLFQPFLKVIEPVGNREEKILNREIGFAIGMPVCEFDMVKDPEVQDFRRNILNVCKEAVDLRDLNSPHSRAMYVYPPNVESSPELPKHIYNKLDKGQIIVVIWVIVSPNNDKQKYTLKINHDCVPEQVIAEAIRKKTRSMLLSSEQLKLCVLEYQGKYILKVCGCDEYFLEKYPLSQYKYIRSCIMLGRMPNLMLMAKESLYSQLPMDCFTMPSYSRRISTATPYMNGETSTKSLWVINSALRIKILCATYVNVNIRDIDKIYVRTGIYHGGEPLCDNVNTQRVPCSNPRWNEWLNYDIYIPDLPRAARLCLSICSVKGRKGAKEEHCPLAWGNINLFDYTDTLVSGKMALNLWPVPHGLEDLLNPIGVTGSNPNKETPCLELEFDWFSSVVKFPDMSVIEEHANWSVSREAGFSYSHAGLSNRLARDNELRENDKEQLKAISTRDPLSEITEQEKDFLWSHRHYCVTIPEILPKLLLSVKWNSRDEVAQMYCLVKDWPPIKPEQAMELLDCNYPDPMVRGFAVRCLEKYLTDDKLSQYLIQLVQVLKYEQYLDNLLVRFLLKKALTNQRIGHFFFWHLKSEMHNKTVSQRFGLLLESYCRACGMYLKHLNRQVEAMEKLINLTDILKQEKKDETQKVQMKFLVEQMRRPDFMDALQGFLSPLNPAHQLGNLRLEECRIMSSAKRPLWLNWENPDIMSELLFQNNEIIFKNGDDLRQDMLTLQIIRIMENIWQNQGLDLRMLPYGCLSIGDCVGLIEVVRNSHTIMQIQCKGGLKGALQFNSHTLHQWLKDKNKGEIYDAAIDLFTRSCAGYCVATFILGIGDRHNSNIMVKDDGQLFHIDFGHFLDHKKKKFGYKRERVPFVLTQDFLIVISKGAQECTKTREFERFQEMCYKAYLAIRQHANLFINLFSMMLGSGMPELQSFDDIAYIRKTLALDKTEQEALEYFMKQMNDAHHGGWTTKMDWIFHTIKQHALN
Sequence of α isoform of human Class I PI3 kinases (P27986 whole entry partner, canonical isoform): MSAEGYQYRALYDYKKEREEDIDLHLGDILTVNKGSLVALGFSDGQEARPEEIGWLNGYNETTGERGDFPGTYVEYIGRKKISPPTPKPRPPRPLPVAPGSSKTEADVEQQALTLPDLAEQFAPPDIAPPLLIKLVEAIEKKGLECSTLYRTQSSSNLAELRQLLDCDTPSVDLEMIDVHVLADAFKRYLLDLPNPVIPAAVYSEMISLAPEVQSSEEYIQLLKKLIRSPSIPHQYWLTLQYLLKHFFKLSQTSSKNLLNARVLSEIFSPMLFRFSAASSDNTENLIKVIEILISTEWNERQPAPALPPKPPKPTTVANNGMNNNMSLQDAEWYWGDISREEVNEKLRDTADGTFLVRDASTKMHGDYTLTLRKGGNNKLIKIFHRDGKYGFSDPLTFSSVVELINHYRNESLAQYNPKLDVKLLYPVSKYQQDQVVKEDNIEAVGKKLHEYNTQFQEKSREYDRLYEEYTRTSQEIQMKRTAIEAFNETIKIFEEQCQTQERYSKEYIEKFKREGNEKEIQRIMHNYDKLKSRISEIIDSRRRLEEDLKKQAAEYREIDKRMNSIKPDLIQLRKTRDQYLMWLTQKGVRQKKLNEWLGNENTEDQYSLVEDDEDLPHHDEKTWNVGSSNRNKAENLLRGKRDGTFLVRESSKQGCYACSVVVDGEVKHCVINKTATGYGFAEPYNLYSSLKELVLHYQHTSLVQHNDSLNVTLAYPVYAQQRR
Sequence of β isoform of human Class I PI3 kinases (P42338 whole entry, canonical isoform): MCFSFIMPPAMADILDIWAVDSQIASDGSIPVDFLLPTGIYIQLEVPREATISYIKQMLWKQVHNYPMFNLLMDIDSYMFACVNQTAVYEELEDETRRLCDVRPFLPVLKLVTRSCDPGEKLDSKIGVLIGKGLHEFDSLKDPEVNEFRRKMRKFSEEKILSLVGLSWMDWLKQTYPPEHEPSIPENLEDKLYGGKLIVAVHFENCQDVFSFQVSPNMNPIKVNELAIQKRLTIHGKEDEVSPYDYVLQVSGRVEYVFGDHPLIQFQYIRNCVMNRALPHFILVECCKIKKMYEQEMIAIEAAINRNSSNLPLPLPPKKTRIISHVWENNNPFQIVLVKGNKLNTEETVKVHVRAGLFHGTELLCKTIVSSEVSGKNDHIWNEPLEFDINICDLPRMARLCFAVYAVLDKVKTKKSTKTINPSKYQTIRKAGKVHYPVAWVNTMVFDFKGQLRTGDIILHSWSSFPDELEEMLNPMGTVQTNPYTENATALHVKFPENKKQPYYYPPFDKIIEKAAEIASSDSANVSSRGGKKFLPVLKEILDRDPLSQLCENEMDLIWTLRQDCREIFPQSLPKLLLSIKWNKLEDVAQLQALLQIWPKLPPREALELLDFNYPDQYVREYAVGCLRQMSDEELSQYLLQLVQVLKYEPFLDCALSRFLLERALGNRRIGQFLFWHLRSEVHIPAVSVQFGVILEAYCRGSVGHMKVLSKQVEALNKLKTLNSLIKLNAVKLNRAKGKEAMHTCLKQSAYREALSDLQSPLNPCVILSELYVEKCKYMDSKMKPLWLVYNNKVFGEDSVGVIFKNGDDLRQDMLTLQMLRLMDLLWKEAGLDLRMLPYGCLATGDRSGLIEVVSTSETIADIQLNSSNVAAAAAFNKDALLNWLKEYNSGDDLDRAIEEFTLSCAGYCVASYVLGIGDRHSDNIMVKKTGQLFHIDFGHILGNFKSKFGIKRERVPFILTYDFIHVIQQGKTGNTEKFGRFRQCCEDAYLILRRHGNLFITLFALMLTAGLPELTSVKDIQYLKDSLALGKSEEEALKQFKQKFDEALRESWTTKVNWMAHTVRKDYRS
Sequence of β isoform of human Class I PI3 kinases (P27986 whole entry partner, canonical isoform): as the sequence (P27986 whole entry partner, canonical isoform) above

Structure (SMILES) | RAJI δ/Raw264.7 γ IC50 (selectivity) (PI3K-γ) | PI3K δ/PI3K γ IC50 (selectivity) [1] | also measured
CC(=O)N1CCC(C#Cc2cccc3cc([C@H](C)NC(=O)c4c(N)nn5cccnc45)n(-c4ccccc4)c(=O)c23)CC1 [Compound 82] | X (X = 10 to <50) | X (X = 10 to <50) | –
C[C@H](NC(=O)c1c(N)nn2cccnc12)c1cc2cccc(C#Cc3cn[nH]c3)c2c(=O)n1-c1ccccc1 [Compound 80] | Y (Y = 50 to <850) | Y (Y = 50 to <850) | –
C[C@H](NC(=O)c1c(N)nn2cccnc12)c1cc2cccc(C#CC3CNC3)c2c(=O)n1-c1ccccc1 [Compound 74] | W (W = >1 to <10) | W (W = >1 to <10) | –
CO[C@H]1C[C@@H]2CC[C@@H](C)[C@@](O)(O2)C(=O)C(=O)N2CCCC[C@H]2C(=O)O[C@H]([C@H](C)C[C@@H]2CC[C@@H](O)[C@H](OC)C2)CC(=O)[C@H](C)/C=C(\C)[C@@H](O)[C@@H](OC)C(=O)[C@H](C)C[C@H](C)/C=C/C=C/C=C/1C [rapamycin] | – | – | anti-CD3 mediated phosphorylation of Akt-S473 (PI3K/Akt/mTOR signaling): enhances; anti-CD3 mediated phosphorylation of S6 (PI3K/Akt/mTOR signaling): inhibits
C/C=C/c1cccc2cc([C@H](C)NC(=O)c3c(N)nn4cccnc34)n(-c3ccccc3)c(=O)c12 [Compound 70] | – | X (X = 10 to <50) | –
C[C@H](NC(=O)c1c(N)nn2cccnc12)c1cc2cccc(C#Cc3ccn[nH]3)c2c(=O)n1-c1ccccc1 [Compound 43] | X (X = 10 to <50) | Y (Y = 50 to <850) | IC50 [2]: 5 to 10 µM; IC50 [3]: 5 to 10 µM; IC50 ([1]; read-out: PI3K γ IC50): 0.1 to 0.5 µM; IC50 [4]: 5 to 10 µM

Continued, in another order:

RAJI δ/Raw264.7 γ IC50 (selectivity) (PI3K-γ) | PI3K δ/PI3K γ IC50 (selectivity) [1] | Structure (SMILES) | also measured
X (X = 10 to <50) | X (X = 10 to <50) | C[C@H](NC(=O)c1c(N)nn2cccnc12)c1cc2cccc(C#CC3CCN(S(C)(=O)=O)CC3)c2c(=O)n1-c1ccccc1 [Compound 83] | –
Y (Y = 50 to <850) | X (X = 10 to <50) | Cc1c(C#Cc2cccc3nc([C@H](C)NC(=O)c4c(N)nn5cccnc45)n(-c4ccccc4)c(=O)c23)cnn1C [Compound 88, (S)-2-amino-N-(1-(5-((1,5-dimethyl-1H-pyrazol-4-yl)ethynyl)-4-oxo-3-phenyl-3,4-dihydroquinazolin-2-yl)ethyl)pyrazolo[1,5-a]pyrimidine-3-carboxamide] | –
W (W = >1 to <10) | X (X = 10 to <50) | C[C@H](NC(=O)c1c(N)nn2cccnc12)c1cc2cccc(C#CC=O)c2c(=O)n1-c1ccccc1 [Compound 36] | –
X (X = 10 to <50) | W (W = >1 to <10) | C[C@H](NC(=O)c1c(N)nn2cccnc12)c1cc2cccc(NC(=O)c3cnn(C)c3)c2c(=O)n1-c1ccccc1 [Compound 90] | –
